# Columns and labels:
# myosin heavy chain = test: Myosin heavy chain protein decrease by immunofluorescence; type: cell-based, human; settings: vs non-treated cells; for reduction of myosin heavy chain protein levels: 48 hours
# Experimental: The potential of said peptide Ac-SEQ ID NO: 8-NH2 to decrease the expression of the protein myosin heavy chain in human skeletal muscle cells was evaluated in vitro by immunofluorescence using a specific antibody against this protein (Biotechne, USA) followed by a secondary fluorescent antibody (Thermofisher, USA). Briefly, human skeletal muscle myoblasts were seeded onto coverslips in SKM-M medium (Tebu-Bio, France) at a density of 3×10^4 cells/cm^2 and incubated overnight at standard culture conditions (37° C., 95% humidity, 5% CO2). Myoblast differentiation to myocyte was then induced with specific differentiation medium (Skeletal Muscle Cell Differentiation Medium, SKM-D medium) and monitored for 7 more days. Differentiated cells were treated with non-cytotoxic concentrations of peptide Ac-SEQ ID NO: 8-NH2 (0.05 mg/mL and 0.5 mg/mL) for additional 48 hours.
# Once incubation was finished, cells were fixed with 4% PFA and permeabilized using 0.1% (v/v) Triton (Sigma, USA). Myosin was then stained with 0.5 mg/ml myosin heavy chain antibody during 2 h at room temperature. After proper washing, actin protein was labelled with 50 μg/ml Phalloidin (red) (Sigma, USA) for 1 h and, after washing, cells were stained with 4 μg/ml of the secondary antibody Goat anti-Mouse IgG for 1 h. Finally, nuclei were stained with 3.5 μg/ml Hoescht marker for 10 min (Sigma, USA).
# Microscopic images were acquired using the 5× and 10× objectives. Three replicates were used for each condition and images of three to four fields of each coverslip were acquired using the same settings.
# Images were analyzed using Image J software. Shortly, threshold was adjusted to select myosin and mean fluorescent was measured. The number of positive cells was counted using DAPI staining. Myosin mean fluorescent intensity was divided by the number of myosin-positive cells. Finally, all data was normalized as follows to obtain the % of myosin compared to non-treated cells: % vs. control=(fluorescence per cell in treated wells/fluorescence per cell in non-treated wells)×100.
# [1] = test system: human skeletal muscle myocytes; test: Gene expression modulation in skeletal muscle human myocytes (RTqPCR contractility gene panel); type: cell-based; settings: vs basal control
# Experimental: Said peptides were tested to evaluate their capacity to modulate the expression of several genes related with muscle contraction and relaxation in human skeletal muscle myocytes (Lodish H, Berk A, Zipursky S L, et al. (2000), Molecular Cell Biology, 4th edition; Section 18.3 Myosin: The Actin Motor Protein, Nueva York, W. H. Freeman; Kuo, I Y, & Ehrlich, B E (2015), Signaling in Muscle Contraction, Cold Spring Harbor Perspectives in Biology, 7(2); RAPSN receptor associated protein of the synapse [Homo sapiens (human)], Gene ID in NCBI 5913; Blake D J, Tinsley J M, Davies K E (1996), Utrophin: a structural and functional comparison to dystrophin, Brain Pathol., 6(1):37-47; Barik A, Lu Y, Sathyamurthy A, et.al. (2014), LRP4Is Critical for Neuromuscular Junction Maintenance, The Journal of Neuroscience, 34(42), 13892-13905; Kim N, Stiegler A L, Cameron T O, Hallock P T, et.al. (2008), Lrp4 is a Receptor for Agrin and Forms a Complex with MuSK, Cell, 135(2), 334-342; Mahavadi S, Nalli A, Kumar D, et.al. (2014), Increased expression of caveolin-1 is associated with upregulation of the RhoA/Rho kinase pathway and smooth muscle contraction in diabetes (1110.11), The FASEB Journal, 28:1_supplement)). To that end, a contractility smart data gene panel was designed. Said contractility smart data gene panel analyses the expression of the genes related with muscular contraction and relaxation included in table 5.
# Briefly, human skeletal muscle myoblasts were seeded in duplicate in 12-well culture plates at a density of 1×10^5 cells/well and maintained at standard culture conditions (37° C., 95% humidity, 5% CO2) for 48-72h. Myoblast differentiation to myocyte was then induced with specific differentiation media (SKM-D medium+1% Antibiotic-Antimycotic) and monitored for 7 more days. Differentiated cells were treated with 0.05 mg/mL of peptide Ac-SEQ ID NO: 5-NH2; or with 0.1 mg/mL of peptide Ac-SEQ ID NO: 10-NH2 for 24 hours; or with 0.05 and 0.5 mg/mL of peptide Ac-SEQ ID NO: 8-NH2 for 6h; or with 0.5 mg/mL of peptide Ac-SEQ ID NO: 8-NH2 for 24 h. Untreated cells were used as basal control. Cells were then lysed for RNA extraction with a RNA purification commercial kit following manufacturer instructions (RNeasy mini kit, Qiagen, Netherlands). RNA was then quantified by nanodrop, adjusted in concentration and processed for retrotranscription to cDNA using a commercially available kit (High-Capacity cDNA Reverse Transcription kit, Thermofisher Scientific, USA). Resulting cDNA was used to perform a RTqPCR (Real Time Quantitative Polymerase Chain Reaction) using taqman technology and a panel of probes designed to target the specific genes related to muscle contractility mentioned in table 4.
substance,measurement,setting,value
Ac-His-Ala-Leu-Arg-Phe-Trp-NH2 [Ac-SEQ ID NO: 8-NH2],reduction of myosin heavy chain protein levels,myosin heavy chain; 0.05 mg/mL,−26%
same,"myosin heavy chain protein levels (representative images, FIG. 5)",myosin heavy chain; 0.05 mg/mL,reduction of myosin heavy chain protein levels
same,reduction of myosin heavy chain protein levels,myosin heavy chain; 0.5 mg/mL,−38%
same,CACNB1 gene expression,"[1]; 0.05 mg/mL, 6 hours",downregulation
same,LRP4 gene expression,"[1]; 0.05 mg/mL, 6 hours",downregulation
same,MYH1 gene expression,"[1]; 0.05 mg/mL, 6 hours",downregulation
same,UTRN gene expression,"[1]; 0.05 mg/mL, 6 hours",downregulation
same,ACTA1 gene expression,"[1]; 0.5 mg/mL, 6 hours",downregulation
same,CALM3 gene expression,"[1]; 0.5 mg/mL, 6 hours",downregulation
same,CAV1 gene expression,"[1]; 0.5 mg/mL, 6 hours",downregulation
same,SCN3A gene expression,"[1]; 0.5 mg/mL, 6 hours",downregulation
same,TNNC1 gene expression,"[1]; 0.5 mg/mL, 6 hours",downregulation
same,ATP2A gene expression,"[1]; 0.5 mg/mL, 24 hours",upregulation
same,RAPSN gene expression,"[1]; 0.5 mg/mL, 24 hours",downregulation

# Reference: patent US11634458B2, “Peptides and compositions for use in cosmetics and medicine” (LIPOTRUE, S.L., priority 2018, dated 2023)
